These results are taken from patent EP0812825B1, “PROPENONE DERIVATIVES” (KYOWA HAKKO KOGYO CO., LTD., priority 1995, dated 1997).

One assay has as its system HeLa S3 cells. The experiment in a line: HeLa S3 cell growth inhibition test (neutral red staining). Format: cell-based. The conditions noted are these: Homo sapiens; HeLa S3, 72 hours culture with compound. The method, then:
Test Example 1: HeLa S3 Cell Growth Inhibition Test
Each 0.1 ml of HeLa S3 cells which had been prepared to 3 x 10^4 cells/ml using a medium consisting of MEM medium, 10% fetal bovine serum, and 2 mM glutamine was distributed in each well of 96 well-microtiter plate.
HeLa S3 was cultured at 37°C for one night in a CO2 incubator, each 0.05 ml of test compounds which had been appropriately diluted with the culture solution was added thereto, and the mixture was cultured at 37°C for 72 hours in a CO2 incubator. Supernatant was removed, each 0.1 ml of the culture solution containing 0.02% neutral red was added to the residue, the mixture was incubated at 37°C for one hour in a CO2 incubator, and the cells were stained. Supernatant was removed and the residue was washed once with physiological saline. Then, the pigment was extracted with 0.001 N hydrochloric acid/30% ethanol and the absorbance at 550 nm was measured by a microplatereader. A concentration of the test compound (IC50) at which the growth of cell is inhibited by 50% was calculated by comparing the absorbance of non-treated cells and that of cells treated with a predetermined concentration of the test compound.

Assay [1] deals with Delayed Type Hypersensitivity Footpad Reaction. The experiment in a line: Effect against delayed type hypersensitivity footpad reaction (TNBS-immunized mice). Format: in vivo, BALB/c mice. The method, then:
Male BALB/c mice (8-weeks-old, Charles River Japan Inc.) were immunized by intradermally injection in the dorsal flank of 100 µl of 10mM 2,4,6-trinitrobenzenesulfonic acid (TNBS) in saline. Five mice were used in each group, that is, control group [0.5% methylcellulose containing 10% dimethyl sulfoxide (DMSO)-administered group], Cyclosporine A (Sandoz)-administered group, and test compound-administered group wherein a determined concentration of test compound suspended in 0.5% methylcellulose containing 10% DMSO was administered. Each of Cyclosporine A and test compound was intraperitoneally administered 30 minutes before and once a day for 4 days after immunization. 50 µl of 10mM TNBS was intradermally injected as a challenging antigen 5 days after immunization when antigen-sensitization was developed. Thickness of both footpads of each animal in each dose of test compound-administered group was measured with a dial thickness gauge 18 hours after antigen challenge, and the value of the difference in thickness of left and right footpad (T) was determined. On the other hand, thickness of both footpads in control group was measured, and the value of the difference in thickness of left and right footpad (C) was determined. Suppression rate in footpad reaction was calculated as [(C - T)/C] x 100.

In assay [2] the test system is anti-Trinitrophenol (TNP) Antibody Production. The experiment in a line: Effect against anti-trinitrophenol (TNP) antibody production (serum ELISA). The format is in vivo, BALB/c mice. The method, then:
Mice which were used for the effect against delayed type hypersensitivity footpad reaction were bled, the sera were separated by centrifugation at 3000rpm at 4°C for 10 minutes, and then anti-TNP antibody titer was measured. For measuring anti-TNP antibody, enzyme-linked immunosorbent assay (ELISA) was used. […] Peroxidase labeled anti-mouse IgG+IgA+IgM (American Qualex International, Inc.) was added and bound to anti-TNP antibody in culture supernatant which was bound to plate. Orthophenylenediamine (Wako Pure Chemical Industries, Ltd) solution containing hydrogen peroxide (Wako Pure Chemical Industries, Ltd) was added and enzyme reaction was started. After sufficient coloring, coloring reaction was stopped by addition of 10% […] (Wako Pure Chemical Industries, Ltd) and absorbance at 490nm was measured by immunoreader (Intermed Japan, NJ-2000).
Suppression rate of anti-TNP antibody production by test compound was calculated according to the following equation.
(In general: ELISA stands for enzyme-linked immunosorbent assay.)

A further assay has as its system T-Cell Proliferation. Kind of assay: T-cell proliferation inhibitory test using mouse mixed lymphocyte reaction (MLR), [3H]-thymidine incorporation. Format: cell-based. The conditions noted are these: 72 hours. The method, then:
Test Example 5: T-Cell Proliferation Inhibitory Test Using Mouse Mixed Lymphocyte Reaction (MLR)
Spleen was sterilly removed from C3H/He mouse and single cell suspension was prepared. This suspension was irradiated with 2000R X-ray and adjusted into 8 x 10^6 cells/ml. 50 µl of lymph-node cells of BALB/c mouse (containing 2 x 10^5 cells), 50 µl of X-ray irradiated spleen cell suspension of C3H/He mouse (containing 4 x 10^5 cells), and 50 µl of determined concentration of test compound solution were added in each well of 96 well microtiter plate and cultured at 37°C for 72 hours in the CO2 incubator. Eight hours before the end of culture, [^3H]-Thymidine (1.85 KBq) was added. At the end of culture, cells were trapped. on the filter paper by cell harvester and dried. Toluene type scintillator was added and radioactivity of [^3H]-Thymidine incorporated into cells was measured by liquid scintillation counter.
Suppression rate of T-cell proliferation was calculated according to the following equation. Suppression rate (%) =((Radioactivity in control group) - (Radioactivity in test group))/((Radioactivity in control group) - (Radioactivity in X-ray irradiated C3H/He+Radioactivity in Balb/c))× 100 [formula]
Background: Incorporation of labelled thymidine or its analogues reports DNA synthesis.

The mark [3] stands for this setting: dose 3.0 mg/kg x 5, intraperitoneally.
Setting [4] is: dose 10 mg/kg x 5, intraperitoneally.

The structures appear in SMILES notation.

On to `CO/C(=C\c1c[nH]c2ccccc12)C(=O)c1cc(OC)c(OC)c(OC)c1` [Compound 1, (Z)-3-(Indol-3-yl)-2-methoxy-1-(3,4,5-trimethoxyphenyl)-2-propen-1-one], for which the IC50 in the assay with HeLa S3 cells was 2.4 nM.

For `CCO/C(=C\c1c[nH]c2ccccc12)C(=O)c1cc(OC)c(OC)c(OC)c1` [Compound 2, (Z)-2-Ethoxy-3-(indol-3-yl)-1-(3,4,5-trimethoxyphenyl)-2-propen-1-one], the IC50 in the assay with HeLa S3 cells was found to be 2.5 nM.

For the molecule `CCCO/C(=C\c1c[nH]c2ccccc12)C(=O)c1cc(OC)c(OC)c(OC)c1` [Compound 3, (Z)-3-(Indol-3-yl)-2-propyloxy-1-(3,4,5-trimethoxyphenyl)-2-propen-1-one], the IC50 in the assay on HeLa S3 cells was determined as 13 nM.

For the molecule `COc1cc(C(=O)/C(=C/c2c[nH]c3ccccc23)OC(C)C)cc(OC)c1OC` [Compound 4, (Z)-2-Isopropyloxy-3-(indol-3-yl)-1-(3,4,5-trimethoxyphenyl)-2-propen-1-one], the IC50 in the assay on HeLa S3 cells was 3.7 nM.

Take `COc1cc(C(=O)/C(=C/c2c[nH]c3ccccc23)Oc2ccccc2C)cc(OC)c1OC` [Compound 7, (Z)-3-(Indol-3-yl)-2-(2-methylphenoxy)-1-(3,4,5-trimethoxyphenyl)-2-propen-1-one]: in the assay with HeLa S3 cells, the IC50 turned out to be 68 nM.

`COc1cc(C(=O)/C(=C/c2c[nH]c3ccccc23)Oc2ccc(Br)cc2)cc(OC)c1OC` [Compound 8, (Z)-2-(4-Bromophenoxy)-3-(indol-3-yl)-1-(3,4,5-trimethoxyphenyl)-2-propen-1-one]: in the assay on HeLa S3 cells, the IC50 was determined as 62 nM.

As for `COc1cc(C(=O)/C(=C/c2c[nH]c3ccccc23)SC)cc(OC)c1OC` [Compound 9, (Z)-3-(Indol-3-yl)-2-methylthio-1-(3,4,5-trimethoxyphenyl)-2-propen-1-one], the IC50 with HeLa S3 cells is 2.2 nM.

As for `COc1cc(C(=O)/C(=C/c2c[nH]c3cc(C)ccc23)SCCO)cc(OC)c1OC` [Compound 13, (Z)-2-(2-Hydroxyethylthio)-3-(6-methylindol-3-yl)-1-(3,4,5-trimethoxyphenyl)-2-propen-1-one], in the assay with HeLa S3 cells, the IC50 is 2.5 nM.

In the case of `COC(=O)CS/C(=C\c1c[nH]c2ccccc12)C(=O)c1cc(OC)c(OC)c(OC)c1` [Compound 16, (Z)-3-(Indol-3-yl)-2-methoxycarbonylmethylthio-1-(3,4,5-trimethoxyphenyl)-2-propen-1-one], in the assay on HeLa S3 cells, the IC50 is 4.7 nM.

For `COc1cc(C(=O)/C(=C/c2c[nH]c3ccccc23)CCC(O)CO)cc(OC)c1OC` (stereo not drawn) [Compound 19, (E)-2-(3,4-Dihydroxybutyl)-3-(indol-3-yl)-1-(3,4,5-trimethoxyphenyl)-2-propen-1-one], the IC50 in the assay with HeLa S3 cells worked out at 2.1 nM.

Take `COc1cc(C(=O)/C(=C/c2c[nH]c3cc(C)ccc23)CCC(O)CO)cc(OC)c1OC` (stereo not drawn) [Compound 20, (E)-2-(3,4-Dihydroxybutyl)-3-(6-methylindol-3-yl)-1-(3,4,5-trimethoxyphenyl)-2-propen-1-one]: the IC50 with HeLa S3 cells amounted to 5.6 nM.

Take `COc1cc(C(=O)/C(=C/c2c[nH]c3ccccc23)SCC(O)CO)cc(OC)c1OC` (stereo not drawn) [Compound 21, (Z)-2-(2,3-Dihydroxypropylthio)-3-(indol-3-yl)-1-(3,4,5-trimethoxyphenyl)-2-propen-1-one]: the IC50 with HeLa S3 cells was found to be 4.8 nM. In addition, the “Suppression rate(%)” value in assay [1] (setting [3]) is 8.5 (3.0) %; in assay [1] (setting [4]), 69 (10) %; in assay [2] (setting [3]), 15 (3.0) %; in assay [2] (setting [4]) it was 57 (10) %. Further, the inhibition at 0.1 µM in the assay on T-Cell Proliferation (concentration 10^-7 M, read-out: Suppression rate(%)) was found to be 107%. The inhibition at 0.01 µM in the assay on T-Cell Proliferation (concentration 10^-8 M, read-out: Suppression rate(%)) was 106%. Moreover, the inhibition at 0.001 µM with T-Cell Proliferation (concentration 10^-9 M, read-out: Suppression rate(%) (converted)) was 7.8%.

Take `COc1cc(C(=O)/C(=C/c2cn(C)c3ccccc23)SCC(O)CO)cc(OC)c1OC` (stereo not drawn) [Compound 22, (Z)-2-(2,3-Dihydroxypropylthio)-3-(1-methylindol-3-yl)-1-(3,4,5-trimethoxyphenyl)-2-propen-1-one]: the IC50 in the assay on HeLa S3 cells was 20 nM.

Take `COc1cc(C(=O)/C(=C/c2c[nH]c3cccc(C)c23)SCC(O)CO)cc(OC)c1OC` (stereo not drawn) [Compound 23, (Z)-2-(2,3-Dihydroxypropylthio)-3-(4-methylindol-3-yl)-1-(3,4,5-trimethoxyphenyl)-2-propen-1-one]: the IC50 in the assay on HeLa S3 cells worked out at 19 nM.

`COc1cc(C(=O)/C(=C/c2c[nH]c3cccc(Cl)c23)SCC(O)CO)cc(OC)c1OC` (stereo not drawn) [Compound 24, (Z)-3-(4-Chloroindol-3-yl)-2-(2,3-dihydroxypropylthio)-1-(3,4,5-trimethoxyphenyl)-2-propen-1-one]: in the assay with HeLa S3 cells, the IC50 was 15 nM.

`COc1cc(C(=O)/C(=C/c2c[nH]c3ccc(F)cc23)SCC(O)CO)cc(OC)c1OC` (stereo not drawn) [Compound 27, (Z)-2-(2,3-Dihydroxypropylthio)-3-(5-fluoroindol-3-yl)-1-(3,4,5-trimethoxyphenyl)-2-propen-1-one]: the IC50 in the assay with HeLa S3 cells stood at 6.3 nM.

With `COc1cc(C(=O)/C(=C/c2c[nH]c3cc(C)ccc23)SCC(O)CO)cc(OC)c1OC` (stereo not drawn) [Compound 28, (Z)-2-(2,3-Dihydroxypropylthio)-3-(6-methylindol-3-yl)-1-(3,4,5-trimethoxyphenyl)-2-propen-1-one], the IC50 with HeLa S3 cells was found to be 6.3 nM.

Take `CCc1ccc2c(/C=C(\SCC(O)CO)C(=O)c3cc(OC)c(OC)c(OC)c3)c[nH]c2c1` (stereo not drawn) [Compound 29, (Z)-2-(2,3-Dihydroxypropylthio)-3-(6-ethylindol-3-yl)-1-(3,4,5-trimethoxyphenyl)-2-propen-1-one]: the IC50 in the assay with HeLa S3 cells was determined as 18 nM.

As to `COc1cc(C(=O)/C(=C/c2c[nH]c3cc(Cl)ccc23)SCC(O)CO)cc(OC)c1OC` (stereo not drawn) [Compound 31, (Z)-3-(6-Chloroindol-3-yl)-2-(2,3-dihydroxypropylthio)-1-(3,4,5-trimethoxyphenyl)-2-propen-1-one], the IC50 in the assay with HeLa S3 cells is 7.2 nM.

With `COc1cc(C(=O)/C(=C/c2c[nH]c3cc(F)ccc23)SCC(O)CO)cc(OC)c1OC` (stereo not drawn) [Compound 32, (Z)-2-(2,3-Dihydroxypropylthio)-3-(6-fluoroindol-3-yl)-1-(3,4,5-trimethoxyphenyl)-2-propen-1-one], in the assay on HeLa S3 cells, the IC50 was determined as 5.9 nM.

For `COc1cc(C(=O)C(=Cc2c[nH]c3ccccc23)SCC(O)C(O)CO)cc(OC)c1OC` [Compound 35, 3-(Indol-3-yl)-2-[(2S),(3R)-2,3,4-trihydroxybutylthio]-1-(3,4,5-trimethoxyphenyl)-2-propen-1-one], the IC50 in the assay with HeLa S3 cells was 4.4 nM.

Regarding `COc1cc(C(=O)C(=Cc2c[nH]c3cc(C)ccc23)SC[C@@H](O)[C@H](O)CO)cc(OC)c1OC` [Compound 36, 3-(6-Methylindol-3-yl)-2-[(2S),(3R)-2,3,4-trihydroxybutylthio]-1-(3,4,5-trimethoxyphenyl)-2-propen-1-one], the IC50 with HeLa S3 cells was found to be 5.3 nM.

`COc1cc(C(=O)C(=Cc2c[nH]c3cc(C)ccc23)SC[C@H](O)[C@@H](O)CO)cc(OC)c1OC` [Compound 37, 3-(6-Methylindol-3-yl)-2-[(2R),(3S)-2,3,4-trihydroxybutylthio)-1-(3,4,5-trimethoxyphenyl)-2-propen-1-one]: in the assay on HeLa S3 cells, the IC50 was determined as 7.1 nM.

For orientation: IC50 means the point on the concentration scale where inhibition reaches its midpoint.
